Test results published in patent publication US11197881B2 (CALIFORNIA INSTITUTE OF TECHNOLOGY, priority 2016, dated 2021).
Entries after “also recorded” stand apart in the source; their conditions may differ.

Assays:
[1] = test system: mouse lymphatic fibroblast (MLF) cells; experiment: X-chromosome reactivation assay (single molecule RNA FISH of X-linked mRNA) in MLF cells having silenced X genes; type: cell-based; conditions: for reactivation of silenced X-chromosome gene Gpc4 (Gpc4 mRNA) compared with Scriptaid alone: in combination with one of the DNMT1 inhibitors 5-aza, 5-aza-2'-dc, RG108 or SGI-1027, FIGS. 7A-7B
Description: Coverslips from siRNA transfection or inhibitor treatment were fixed in Histochoice (Sigma) for 10 min, washed thoroughly in PBS, and dehydrated in ethanol for storage until FISH staining. Single molecule RNA Fluorescence in situ hybridization (FISH) experiments were done using QuantiGene ViewRNA ISH Cell Assay (Affymetrix) and QuantiGene ViewRNA ISH Cell 740 Module (Affymetrix) according to manufacturer's protocol. Specifically, cells fixed on coverslips were first permeabilized with Detergent Solution QC at room temperature for 5 min, and then incubated with desired mixture of probe set (Affymetrix) in Probe Set Diluent QF at 40° C. for 3 h, followed by incubated with PreAmplifier Mix at 40° C. for 30 min, Amplifier Mix at 40° C. for 30 min, and Label Probe Mix at 40° C. for 30 min sequentially. For DAPI staining, coverslips were incubated in 30 nM DAPI in PBS at room temperature for 15-20 min. Probe sets and conjugated fluorophores (excitation wavelengths) for FISH were TYPE 4-GPC4, MECP2, SMC1A (488 nm), TYPE 10-ATRX (740 nm), and TYPE 6-EMD (650 nm). Cells were stained for target mRNAs (e.g., X-linked Gpc4 mRNA, X-linked MeCP2 mRNA, or as indicated) and siRNA-targeted mRNA by FISH and imaged. Images were then analyzed using Matlab R2013b (described below). In the case of siRNA targeting, cells were selected if the copy number of the targeted mRNA was less than 30% of the level of the no siRNA treated cells and if they induced Xist expression. Within these cells, the copy number of target mRNAs were quantified using a peak finding method (described below) and compared across conditions. The mRNA levels were quantified for 50 individual cells. All image analysis was carried out using Matlab (version R2013b) utilizing built-in functions from the Image Processing toolbox. […] Once regional maxima were identified, the number of spots was counted for each cell. The percentage of X-reactivation is calculated by normalizing the average number of spots of each condition to the average number of spots in untreated cells, and subtracting the value by 1.

[2] = test system: mouse lymphatic fibroblast (MLF) cells; conditions: 1 uM, FIG. 7E
Description: With reference to FIG. 7E, MLF cells having a silenced X chromosome were assayed for reactivation of the Gpc4 gene after incubation with SAHA at 2 uM, RGFP966 at 3 uM, RG2833 (RGFP109) at 300 nM, PCI-24781 (Abexinostat) at 300 nM, CUDC-101 at 400 nM, Resminostat at 100 nM, Mocetinostat (MGCD0103) at 10 uM, HPOB (4-[(hydroxyamino)carbonyl]-N-(2-hydroxyethyl)-N-phenyl-benzeneacetamide) at 5 uM, Entinostat (MS0275) at 2 uM, Droxinostat at 20 uM, 4SC-202 at 2 uM, Trichostatin A (TSA) at 5 uM, Rocilinostat (ACY-1215) at 100 nM, Quisinostat (JNJ-26481585) at 100 nM, or Pracinostat (SB939) at 1 uM.
5,000 Mouse MLF cells were plated on a poly-D-lysine (Sigma) and 0.2% gelatin (Sigma)-coated #1.5 coverslip placed into wells of a 24-well plate containing HEK media (DMEM, 10% Gemini Benchmark FBS, 1×L-glutamine, 1× sodium pyruvate, 1×NEAA, lx Pen/Strep; Life Technologies unless otherwise indicated). After 16 hours, inhibitors were added into the media and incubated the cells for 48 hours. Unless, otherwise indicated, the inhibitors and the concentration used were: 5-Azacytidine (6 μM; Sigma, A2385), 5-Aza-2′-deoxycytidine (0.3 μM; Sigma, A3656), RG 108 (200 μM; Abcam, ab141013), Trichostatin A (5 μM; Sigma, T8552), and Scriptaid (100 nM; Sigma, S7817).

human fibroblast cells = experiment: X chromosome reactivation (active PGK1 loci, MeCP2 mRNA) in human fibroblast cells having a silenced X chromosome; type: cell-based; conditions: for percentage of reactivated human fibroblasts (active PGK1 loci) with treatment time: simultaneous treatment with 5-aza-2'-dc, 48 h, 72 h, 7 days, FIG. 7F; for activation of the silenced X chromosome: simultaneous treatment with DNMT1 inhibitor 5-aza-2'-dc, human fibroblast cells
Description: (§1) FIG. 7F is a graph of the percentage of reactivated cells (measured as the number of active phosphoglycerate kinase 1 (PGK1) loci for a population of 50 human fibroblast cells having a silenced X chromosome after the simultaneous treatment of DMSO (as a control), the DNMT1 inhibitor (5-aza-2-dc) and the HDAC inhibitor SAHA or RGFP966 for 48 hours (h), 72 hours, and 7 days as indicated, with the number of active PGK1 loci greater than 2 shown in grey, the number of PGK1 loci equal to 2 shown in orange, and the number of PGK1 loci equal to 1 shown in blue, according to embodiments of the present invention.
FIG. 7G is a graph quantifying the expression level of MeCP2 mRNA (relative to control) of reactivated human fibroblast cells having a silenced X chromosome after simultaneous treatment with DMSO (control), the DNMT1 inhibitor (5-aza-2-dc) and the HDAC inhibitor SAHA or RGFP966 for 7 days for a population of 50 cells, according to embodiments of the present invention.
(§2) Cells were stained for target mRNAs (e.g., X-linked Gpc4 mRNA, X-linked MeCP2 mRNA, or as indicated) and siRNA-targeted mRNA by FISH and imaged. Images were then analyzed using Matlab R2013b (described below). In the case of siRNA targeting, cells were selected if the copy number of the targeted mRNA was less than 30% of the level of the no siRNA treated cells and if they induced Xist expression. Within these cells, the copy number of target mRNAs were quantified using a peak finding method (described below) and compared across conditions. The mRNA levels were quantified for 50 individual cells.
The number of active X chromosomes was determined by RNA FISH with probes against the intronic region of Pgk1/PGK1 RNA using smFISH. The spots were then identified using a 2D peak finding algorithm that identifies local maximal signals within the cell. Once regional maxima were identified, the number of spots was counted for each cell. Cells were selected in the G1 phase of the cell cycle by co-immunostaining the cells with Cyclin E antibodies (Abcam; ab33911 for mouse cells; ab32103 for human cells) and selecting Cyclin E positive cells.

[3] = test system: mouse post-mitotic neurons; experiment: X chromosome reactivation (active PGK1 loci, MeCP2 mRNA) in mouse post-mitotic neurons having a silenced X chromosome; type: cell-based; conditions: simultaneous treatment with DNMT1 inhibitor 5-aza-2'-dc
Description: as §1, with “7H” for “7F”, “mouse post-mitotic neuronal” for “human fibroblast”
FIG. 7I is a graph quantifying the expression level of MeCP2 mRNA in mouse post-mitotic neurons having a silenced X chromosome after simultaneous treatment with DMSO (control), the DNMT1 inhibitor (5-aza-2-dc) and the HDAC inhibitor SAHA or RGFP966 for 7 days for a population of 50 cells, with the relative expression calculated by normalizing reactivated female post-mitotic neurons to male post-mitotic neurons, according to embodiments of the present invention.
Cells were stained for target mRNAs (e.g., X-linked Gpc4 mRNA, X-linked MeCP2 mRNA, or as indicated) and siRNA-targeted mRNA by FISH and imaged. Images were then analyzed using Matlab R2013b (described below). […] The mRNA levels were quantified for 50 individual cells. […]

[4] = test system: human iPS-derived neurons; experiment: X chromosome reactivation (PGK1 and MeCP2 mRNA staining) in human iPS-derived neurons having a silenced X chromosome; type: cell-based; conditions: simultaneous treatment with DNMT1 inhibitor 5-aza-2'-dc
Text: FIG. 7K is a graph quantifying the expression level of MeCP2 mRNA in human iPSC-derived neurons having a silenced X chromosome after simultaneous treatment with the DNMT1 inhibitor (5-aza-2-dc) and the HDAC inhibitor SAHA for 7 days for a population of 50 cells, with the relative expression calculated by normalizing the neurons (two spots of active PGK1 loci) to non-reactivated (treated) neurons (one spot of active PGK1 locus), according to embodiments of the present invention.
as §2
The number of active X chromosomes was determined by RNA FISH with probes against the intronic region of Pgk1/PGK1 RNA using smFISH. […] Once regional maxima were identified, the number of spots was counted for each cell. […]

Structure (SMILES) | reactivation of silenced X-chromosome gene Gpc4 (Gpc4 mRNA) compared with Scriptaid alone [1] | percentage of reactivated human fibroblasts (active PGK1 loci) with treatment time (human fibroblast cells) | activation of the silenced X chromosome (human fibroblast cells) | activation of the silenced X chromosome [3] | activation of the silenced X chromosome [4] | further results
CC(/C=C/C(=O)NO)=C\[C@@H](C)C(=O)c1ccc(N(C)C)cc1 [Trichostatin A] | reactivated to a higher level of reactivation | – | – | – | – | –
CCCCc1nc2cc(/C=C/C(=O)NO)ccc2n1CCN(CC)CC [Pracinostat] | – | – | – | – | – | cytotoxicity (cell death) [2]: cytotoxic, causing cell death
O=C(CCCCCN1C(=O)c2cccc3cccc(c23)C1=O)NO [Scriptaid] | reactivated to a higher level of reactivation | – | – | – | – | reactivation of the Xist-dependent silent Gpc4 gene as measured by levels of Gpc4 mRNA ([1]; HDAC inhibitor alone, FIGS. 7A-7B): expression of Gpc4; also recorded: reactivation of the Xist-dependent silent Gpc4 gene
Nc1cc(F)ccc1NC(=O)/C=C/c1cnn(C/C=C/c2ccccc2)c1 [RGFP966] | – | increase in reactivation | activation (or re-activation) of the X chromosome | activation of the X chromosome | activation of the X chromosome | –
O=C(CCCCCCC(=O)Nc1ccccc1)NO [SAHA] | – | increase in reactivation | activation (or re-activation) of the X chromosome | activation of the X chromosome | activation of the X chromosome | –
